Data from patent US11318157B2, “6-6 bicyclic aromatic ring substituted nucleoside analogues for use as PRMT5 inhibitors” (Janssen Pharmaceutica NV, priority 2015, dated 2022).
Read-outs that look alike come from different tables or passages of the source.

Tests used:
PRMT5-MEP50 enzyme [1] = target: T1, PRMT5-MEP50 enzyme (Homo sapiens, UniProt O14744); experiment: In vitro assay 1b: high throughput mass spectrometer assay of SAH formation, 1.25 nM enzyme, 120 min; format: biochemical; conditions: averaged values, PRMT5-MEP50, 1.25 nM enzyme, 120 min; for IC50: read-out: pIC50 Assay 1b (converted)
T1 construct: One virus expresses full length human PRMT5 with Flag-tag at N-terminus; Flag (N); purchased Charles River (Argenta); host or cells: insect cells (Sf9), baculovirus co-infection
Summary of the method: (§1)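 SAH product measured by RapidFire mass spectrometry after formic acid stop; IC50 from 11-point 1:2 dilutions, four-parameter fit. Reactions at 30 °C in 20 mM Tris pH 8.5 with 1 μM SAM, 0.3 μM H2A: assay 1a 10 nM PRMT5-MEP50, 60 min; assay 1b 1.25 nM, 120 min.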

PRMT5-MEP50 enzyme [2] = target: T1, PRMT5-MEP50 enzyme; experiment: In vitro assay 1a: high throughput mass spectrometer assay of SAH formation, 10 nM enzyme, 60 min; format: biochemical; conditions: averaged values, PRMT5-MEP50, 10 nM enzyme, read-out: pIC50 Assay 1a (converted)
Summary of the method: as §1

[3] = system: nuclear symmetric Arginine dimethylation in A549 cells; experiment: PD assay (assay 2): inhibition of nuclear symmetric Arginine dimethylation (SYM10 immunohistochemistry), 48 h; format: cell-based; conditions: for IC50: Homo sapiens; for pIC50 Assay 2: averaged values
Summary of the method: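 Cells seeded at 400/well overnight, then treated 48 h at 37 °C, final DMSO 0.2%. Fixed and stained with SYM10 antibody plus Alexa 488 secondary, Hoechst and CellMask, then imaged on Opera. Normalized to DMSO (high) and 10 μM reference compound (low); averaged pIC50 reported.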

[4] = A549, averaged values, PD assay, A549 cells, symmetric Arginine dimethylation, read-out: pIC50 Assay 2 (converted)
[5] = A549, read-out: pIC50 Assay 2 (converted)
[6] = PD assay, A549 cells, symmetric Arginine dimethylation

T1 sequence (O14744 whole entry): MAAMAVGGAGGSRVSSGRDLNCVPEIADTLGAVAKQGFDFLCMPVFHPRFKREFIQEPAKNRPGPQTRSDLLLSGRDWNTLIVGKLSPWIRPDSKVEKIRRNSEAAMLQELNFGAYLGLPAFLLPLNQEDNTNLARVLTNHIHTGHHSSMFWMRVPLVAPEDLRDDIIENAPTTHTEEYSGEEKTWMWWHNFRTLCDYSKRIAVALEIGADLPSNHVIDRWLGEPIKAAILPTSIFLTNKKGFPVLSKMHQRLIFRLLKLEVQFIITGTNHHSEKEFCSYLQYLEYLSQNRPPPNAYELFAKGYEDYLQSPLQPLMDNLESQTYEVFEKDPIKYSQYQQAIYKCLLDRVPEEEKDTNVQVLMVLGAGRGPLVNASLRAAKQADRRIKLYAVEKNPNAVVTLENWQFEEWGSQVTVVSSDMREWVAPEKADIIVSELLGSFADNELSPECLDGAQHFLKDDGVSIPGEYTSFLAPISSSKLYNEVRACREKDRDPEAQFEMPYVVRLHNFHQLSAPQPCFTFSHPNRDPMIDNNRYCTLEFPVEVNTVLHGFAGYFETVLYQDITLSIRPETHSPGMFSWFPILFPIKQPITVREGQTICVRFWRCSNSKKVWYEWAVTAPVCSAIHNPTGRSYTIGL
T1 sequence (Q9BQA1 whole entry partner): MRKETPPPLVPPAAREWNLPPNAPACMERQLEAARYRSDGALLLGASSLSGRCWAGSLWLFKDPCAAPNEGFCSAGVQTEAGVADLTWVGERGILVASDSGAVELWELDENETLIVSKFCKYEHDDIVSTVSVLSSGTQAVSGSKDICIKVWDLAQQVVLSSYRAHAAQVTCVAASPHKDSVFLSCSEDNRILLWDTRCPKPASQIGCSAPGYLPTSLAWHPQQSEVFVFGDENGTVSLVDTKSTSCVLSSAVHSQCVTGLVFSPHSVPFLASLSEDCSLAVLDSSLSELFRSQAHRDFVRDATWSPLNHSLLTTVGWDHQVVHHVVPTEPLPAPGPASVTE

SMILES | IC50 (PRMT5-MEP50 enzyme [1]) | IC50 (PRMT5-MEP50 enzyme [2]) | IC50 [3, 4] | pIC50 Assay 2 [3, 6] | pIC50 Assay 1b (PRMT5-MEP50 enzyme [1]) | IC50 [3, 5]
Nc1ncnc2c1ccn2[C@@H]1C[C@H](CCc2ccc3ccc(NCC(F)F)nc3c2)[C@@H](O)[C@H]1O [Compound 75] | 0.501 nM | 0.251 nM | 1.58 nM |  |  | 
Nc1ncnc2c1ccn2[C@@H]1C[C@H](CCc2ccc3cc(Br)cnc3c2)[C@@H](O)[C@H]1O [Compound 129] | 15.8 nM | 2.51 nM |  |  |  | 12.6 nM
Nc1ncnc2c1ccn2[C@@H]1C[C@H](OCc2ccc3ncccc3c2)[C@@H](O)[C@H]1O [Compound 65] | 1000 nM | 3160 nM | 15800 nM |  |  | 
CC(Oc1ccc2cccnc2c1)[C@H]1O[C@@H](n2ccc3c(N)ncnc32)[C@H](O)[C@@H]1O (single isomer, unassigned) [Compound 68] | > 100000 nM | 2510 nM |  | ~5.14 |  | 
CNc1ccc2ccc(CC[C@H]3C[C@@H](n4ccc5c(N)ncnc54)[C@H](O)[C@@H]3O)cc2n1 [Compound 126] | 2.51 nM | 0.501 nM |  |  |  | 0.316 nM
N#Cc1ccc2ccc(OC[C@H]3O[C@@H](n4ccc5c(N)ncnc54)[C@H](O)[C@@H]3O)cc2n1 [Compound 70] | 1580 nM | 631 nM | 6310 nM |  |  | 
CNC(=O)c1cnc2cc(OC[C@H]3O[C@@H](n4ccc5c(N)ncnc54)[C@H](O)[C@@H]3O)ccc2c1 [Compound 189] | 1000 nM | 316 nM | 251 nM |  |  | 
O[C@@H]1[C@H](O)[C@@H](COc2ccc3c(Cl)ccnc3c2)O[C@H]1n1ccc2c(Cl)ncnc21 [Compound 34] | > 100000 nM | 7940 nM | > 20000 nM |  |  | 
Nc1ncnc2c1ccn2[C@@H]1C[C@H](CNc2ccc3cc(Br)cnc3c2)[C@@H](O)[C@H]1O [Compound 54a] |  | 7.94 nM |  | 7.4 | 7.8 | 
Nc1ncnc2c1ccn2[C@@H]1O[C@H](CCc2ccc3ccc(NCC4CC4)nc3c2)[C@@H](O)[C@H]1O [Compound 139] | 10 nM | 1.26 nM | 6.31 nM |  |  | 
Nc1ncnc2c1ccn2[C@@H]1O[C@H](COc2cc3ncc(Br)cc3cc2C(F)(F)F)[C@@H](O)[C@H]1O [Compound 96] | 501 nM | 200 nM | 200 nM |  |  | 
Nc1ncnc2c1ccn2[C@@H]1O[C@H](COc2ccc3ncccc3c2)[C@@H](O)[C@H]1O [Compound 11] | 7940 nM | 3160 nM | > 10000 nM |  |  | 
Nc1ncnc2c1ccn2[C@@H]1O[C@H](COc2ccc3c(Cl)ccnc3c2)[C@@H](O)[C@H]1O [Compound 33] | 794 nM | 158 nM | 501 nM |  |  | 

Continued, in another order:

IC50 (PRMT5-MEP50 enzyme [1]) | IC50 (PRMT5-MEP50 enzyme [2]) | IC50 [3, 4] | pIC50 Assay 2 [3, 6] | pIC50 Assay 1b (PRMT5-MEP50 enzyme [1]) | SMILES | IC50 [3, 5]
1000 nM | 158 nM | 2510 nM |  |  | COC(=O)c1cnc2cc(OC[C@H]3O[C@@H](n4ccc5c(N)ncnc54)[C@H](O)[C@@H]3O)ccc2c1 [Compound 105] | 
39.8 nM | 12.6 nM | 126 nM |  |  | Nc1ncnc2c1ccn2[C@@H]1O[C@H](COc2ccc3cc(Cl)cnc3c2)[C@@H](O)[C@H]1O [Compound 25] | 
501 nM | 100 nM | > 10000 nM |  |  | Nc1ncnc2c1ccn2[C@@H]1O[C@H](COc2cc(Cl)c3cccnc3c2)[C@@H](O)[C@H]1O [Compound 102] | 
1260 nM | 2510 nM | > 10000 nM |  |  | Nc1ccc2ccc(OC[C@H]3O[C@@H](n4ccc5c(O)ncnc54)[C@H](O)[C@@H]3O)cc2n1 [Compound 208] | 
3.98 nM | 1.26 nM | 3.98 nM |  |  | Nc1ncnc2c1ccn2[C@@H]1O[C@H](COc2ccc3ccc(NCc4ccccc4)nc3c2)[C@@H](O)[C@H]1O [Compound 107] | 
3160 nM | > 10000 nM | > 10000 nM |  |  | COCc1ccc2ccc(OC[C@H]3O[C@@H](n4ccc5c(N)ncnc54)[C@H](O)[C@@H]3O)cc2n1 [Compound 175] | 
25.1 nM | 3.98 nM | 20 nM |  |  | CCc1cnc2cc(CC[C@H]3C[C@@H](n4ccc5c(N)ncnc54)[C@H](O)[C@@H]3O)ccc2c1 [Compound 125] | 
